Calls of active or inactive are those of the source. No cut-off for these calls is given here.
Columns and labels:
Hepatocyte [1] = assay: Downregulation of TGF-beta1 and miR-190a-5p inhibitor induced HGF mRNA expression in C57/B6J mouse primary hepatocytes at 10 uM by qRT-PCR analysis; assay type: functional, cell-based
Hepatocyte [2] = assay: Induction of apoptosis in TGF-beta1-stimulated C57/B6J mouse primary hepatocytes assessed as reversal of miR-190a-5p inhibitor induced decrease in cleaved-caspase 3 expression at 10 uM by Western blot analysis; assay type: functional, cell-based
Hepatocyte [3] = assay: Inhibition of TGF-beta1 induced apoptosis in C57/B6J mouse primary hepatocytes assessed as early apoptotic cells at 10 uM in presence of miR-190a-5p inhibitor by Annexin-V-FITC-H and PI staining based flow cytometry analysis (reference value: 18.90 %); assay type: functional; parameters: scale not given: the % may be the effect or the level left
Hepatocyte [4] = assay: Downregulation of TGF-beta1 and miR-190a-5p inhibitor induced HGF protein expression C57/B6J mouse primary hepatocytes at 10 uM by Western blot analysis; assay type: functional, cell-based
Hepatocyte [5] = assay: Inhibition of TGF-beta1 induced apoptosis in C57/B6J mouse primary hepatocytes assessed as live cells at 10 uM in presence of miR-190a-5p inhibitor by Annexin-V-FITC-H and PI staining based flow cytometry analysis (reference value: 61.65 %); assay type: functional; parameters: scale not given: the % may be the effect or the level left
Hepatocyte [6] = assay: Induction of apoptosis in TGF-beta1-stimulated C57/B6J mouse primary hepatocytes assessed as reversal of miR-190a-5p inhibitor induced increase in Bcl-2 expression at 10 uM by Western blot analysis; assay type: functional, cell-based
Hepatocyte [7] = assay: Inhibition of TGF-beta1 induced apoptosis in C57/B6J mouse primary hepatocytes assessed as dead cells at 10 uM in presence of miR-190a-5p inhibitor by Annexin-V-FITC-H and PI staining based flow cytometry analysis (reference value: 5.49 %); assay type: functional; parameters: scale not given: the % may be the effect or the level left
Hepatocyte [8] = assay: Inhibition of TGF-beta1 induced apoptosis in C57/B6J mouse primary hepatocytes assessed as late apoptotic cells at 10 uM in presence of miR-190a-5p inhibitor by Annexin-V-FITC-H and PI staining based flow cytometry analysis (reference value: 13.96 %); assay type: functional; parameters: scale not given: the % may be the effect or the level left
Hepatocyte [9] = assay: Inhibition of TGF-beta1 induced apoptosis in C57/B6J mouse primary hepatocytes assessed as late apoptotic cells at 25 uM by Annexin-V-FITC-H and PI staining based flow cytometry analysis (reference value: 12.12 %); assay type: functional; parameters: scale not given: the % may be the effect or the level left
Hepatocyte [10] = assay: Inhibition of TGF-beta1 induced apoptosis in C57/B6J mouse primary hepatocytes assessed as live cells at 10 uM by Annexin-V-FITC-H and PI staining based flow cytometry analysis (reference value: 66.08 %); assay type: functional; parameters: scale not given: the % may be the effect or the level left
Hepatocyte [11] = assay: Inhibition of TGF-beta1 induced apoptosis in C57/B6J mouse primary hepatocytes assessed as early apoptotic cells by Annexin-V-FITC-H and PI staining based flow cytometry analysis (reference value: 19.89 %); assay type: functional; parameters: scale not given: the % may be the effect or the level left
Hepatocyte [12] = assay: Inhibition of TGF-beta1 induced apoptosis in C57/B6J mouse primary hepatocytes assessed as late apoptotic cells at 10 uM by Annexin-V-FITC-H and PI staining based flow cytometry analysis (reference value: 12.12 %); assay type: functional; parameters: scale not given: the % may be the effect or the level left
Hepatocyte [13] = assay: Inhibition of TGF-beta1 induced apoptosis in C57/B6J mouse primary hepatocytes assessed as live cells by Annexin-V-FITC-H and PI staining based flow cytometry analysis (reference value: 64.40 %); assay type: functional; parameters: scale not given: the % may be the effect or the level left
Hepatocyte [14] = assay: Inhibition of TGF-beta1 induced apoptosis in C57/B6J mouse primary hepatocytes assessed as early apoptotic cells at 25 uM by Annexin-V-FITC-H and PI staining based flow cytometry analysis (reference value: 18.71 %); assay type: functional; parameters: scale not given: the % may be the effect or the level left
Hepatocyte [15] = assay: Inhibition of TGF-beta1 induced apoptosis in C57/B6J mouse primary hepatocytes assessed as live cells at 50 uM by Annexin-V-FITC-H and PI staining based flow cytometry analysis (reference value: 66.08 %); assay type: functional; parameters: scale not given: the % may be the effect or the level left
Hepatocyte [16] = assay: Inhibition of TGF-beta1 induced apoptosis in C57/B6J mouse primary hepatocytes assessed as dead cells by Annexin-V-FITC-H and PI staining based flow cytometry analysis (reference value: 3.68 %); assay type: functional; parameters: scale not given: the % may be the effect or the level left
Mus musculus [17] = assay: Antifibrotic activity in CCL-4 induced liver fibrosis C57/B6J mouse model assessed as increase in HGF expression at 100 mg/kg/day, ip measured after 72 hrs post last dose by Western blot analysis; assay type: functional, organism-based
Hepatocyte [18] = assay: Inhibition of TGF-beta1 induced apoptosis in C57/B6J mouse primary hepatocytes assessed as late apoptotic cells in presence of miR-190a-5p mimic by Annexin-V-FITC-H and PI staining based flow cytometry analysis (reference value: 12.03 %); assay type: functional; parameters: scale not given: the % may be the effect or the level left
Mus musculus [19] = assay: Antifibrotic activity in CCL-4 induced liver fibrosis C57/B6J mouse model assessed as reduction in COL1A1 mRNA expression at 100 mg/kg/day, ip measured after 72 hrs post last dose by qRT-PCR analysis; assay type: functional, organism-based
Mus musculus [20] = assay: Antifibrotic activity in CCL-4 induced liver fibrosis C57/B6J mouse model assessed as reduction in serum ALT level at 100 mg/kg/day, ip measured after 72 hrs post last dose by ELISA; assay type: functional, organism-based
Hepatocyte [21] = assay: Inhibition of TGF-beta1 induced apoptosis in C57/B6J mouse primary hepatocytes assessed as increase in Bcl-2 expression at 10 to 50 uM by Western blot analysis; assay type: functional, cell-based; conditions: dose 10-50 µM
Hepatocyte [22] = assay: Inhibition of TGF-beta1 induced apoptosis in C57/B6J mouse primary hepatocytes assessed as dead cells at 25 uM by Annexin-V-FITC-H and PI staining based flow cytometry analysis (reference value: 3.09 %); assay type: functional; parameters: scale not given: the % may be the effect or the level left
Hepatocyte [23] = assay: Inhibition of TGF-beta1 induced apoptosis in C57/B6J mouse primary hepatocytes assessed as late apoptotic cells at 50 uM by Annexin-V-FITC-H and PI staining based flow cytometry analysis (reference value: 12.12 %); assay type: functional; parameters: scale not given: the % may be the effect or the level left
Hepatocyte [24] = assay: Inhibition of TGF-beta1 induced apoptosis in C57/B6J mouse primary hepatocytes assessed as dead cells at 10 uM by Annexin-V-FITC-H and PI staining based flow cytometry analysis (reference value: 3.09 %); assay type: functional; parameters: scale not given: the % may be the effect or the level left
Hepatocyte [25] = assay: Inhibition of TGF-beta1 induced apoptosis in C57/B6J mouse primary hepatocytes assessed as dead cells at 50 uM by Annexin-V-FITC-H and PI staining based flow cytometry analysis (reference value: 3.09 %); assay type: functional; parameters: scale not given: the % may be the effect or the level left
Mus musculus [26] = assay: Antifibrotic activity in CCL-4 induced liver fibrosis C57/B6J mouse model assessed as increase in albumin level in serum at 100 mg/kg/day, ip measured after 72 hrs post last dose by ELISA; assay type: functional, organism-based
Mus musculus [27] = assay: Antifibrotic activity in CCL-4 induced liver fibrosis C57/B6J mouse model assessed as reduction in disorganized and interlaced fibers at 100 mg/kg/day, ip measured after 72 hrs post last dose by HE/Sirus red/TUNEL staining based analysis; assay type: functional, organism-based
Hepatocyte [28] = assay: Inhibition of TGF-beta1 induced apoptosis in C57/B6J mouse primary hepatocytes assessed as dead cells in presence of miR-190a-5p mimic by Annexin-V-FITC-H and PI staining based flow cytometry analysis (reference value: 3.68 %); assay type: functional; parameters: scale not given: the % may be the effect or the level left
Hepatocyte [29] = assay: Inhibition of TGF-beta1 induced apoptosis in C57/B6J mouse primary hepatocytes assessed as late apoptotic cells by Annexin-V-FITC-H and PI staining based flow cytometry analysis (reference value: 12.03 %); assay type: functional; parameters: scale not given: the % may be the effect or the level left
Hepatocyte [30] = assay: Inhibition of TGF-beta1 induced apoptosis in C57/B6J mouse primary hepatocytes assessed as early apoptotic cells in presence of miR-190a-5p mimic by Annexin-V-FITC-H and PI staining based flow cytometry analysis (reference value: 19.89 %); assay type: functional; parameters: scale not given: the % may be the effect or the level left
Hepatocyte [31] = assay: Inhibition of TGF-beta1 induced apoptosis in C57/B6J mouse primary hepatocytes assessed as live cells at 25 uM by Annexin-V-FITC-H and PI staining based flow cytometry analysis (reference value: 66.08 %); assay type: functional; parameters: scale not given: the % may be the effect or the level left
Hepatocyte [32] = assay: Inhibition of TGF-beta1 induced apoptosis in C57/B6J mouse primary hepatocytes assessed as decrease in cleaved-caspase-3 expression at 10 to 50 uM by Western blot analysis; assay type: functional, cell-based; conditions: dose 10-50 µM
Mus musculus [33] = assay: Antifibrotic activity in CCL-4 induced liver fibrosis C57/B6J mouse model assessed as reduction in serum AST level at 100 mg/kg/day, ip measured after 72 hrs post last dose by ELISA; assay type: functional, organism-based
Mus musculus [34] = assay: Antifibrotic activity in CCL-4 induced liver fibrosis C57/B6J mouse model assessed as reduction in hydroxyproline level in liver at 100 mg/kg/day, ip measured after 72 hrs post last dose; assay type: functional, organism-based
Hepatocyte [35] = assay: Inhibition of TGF-beta1 induced apoptosis in C57/B6J mouse primary hepatocytes assessed as live cells in presence of miR-190a-5p mimic by Annexin-V-FITC-H and PI staining based flow cytometry analysis (reference value: 64.40 %); assay type: functional; parameters: scale not given: the % may be the effect or the level left
Hepatocyte [36] = assay: Inhibition of TGF-beta1 induced apoptosis in C57/B6J mouse primary hepatocytes assessed as early apoptotic cells at 50 uM by Annexin-V-FITC-H and PI staining based flow cytometry analysis (reference value: 18.71 %); assay type: functional; parameters: scale not given: the % may be the effect or the level left
Mus musculus [37] = assay: Inhibition of apoptosis in CCL-4 induced liver fibrosis C57/B6J mouse model at 100 mg/kg/day, ip measured after 72 hrs post last dose; assay type: functional, organism-based
Hepatocyte [38] = assay: Inhibition of TGF-beta1 induced apoptosis in C57/B6J mouse primary hepatocytes assessed as early apoptotic cells at 10 uM by Annexin-V-FITC-H and PI staining based flow cytometry analysis (reference value: 18.71 %); assay type: functional; parameters: scale not given: the % may be the effect or the level left
Hepatocyte [39] = assay: Downregulation of miR-190a-5p expression in TGF-beta induced C57/B6J mouse primary hepatocytes at 10 to 50 uM incubated for 4 hrs by qRT-PCR analysis; assay type: functional, cell-based; conditions: dose 10-50 µM
HepG2 = assay: Downregulation of miR-190a-5p expression in TGF-beta induced human HepG2 cells at 10 to 50 uM incubated for 4 hrs by qRT-PCR analysis; assay type: functional, cell-based; conditions: dose 10-50 µM
Mus musculus [40] = assay: Antifibrotic activity in CCL-4 induced liver fibrosis C57/B6J mouse model assessed as reduction in miR-190a-5p expression in liver at 100 mg/kg/day, ip measured after 72 hrs post last dose by qRT-PCR analysis; assay type: functional, organism-based

## CC1CN(CC2CCN(Cc3ccccc3)CC2)C(=O)N(c2cccc(C(=N)N)c2)C1.O=C(O)C(F)(F)F (stereo unspecified)
Hepatocyte [1]
  Activity: Active
Hepatocyte [2]
  Activity: Active
Hepatocyte [3]
  Activity: 18.6%
Hepatocyte [4]
  Activity: Active
Hepatocyte [5]
  Activity: 64.46%
Hepatocyte [6]
  Activity: Active
Hepatocyte [7]
  Activity: 3.35%
Hepatocyte [8]
  Activity: 13.59%

## Oc1ccc(/C=C/c2cc(O)cc(O)c2)cc1 [RESVERATROL]
Hepatocyte [9]
  Activity: 9.96%
Hepatocyte [10]
  Activity: 69.83%
Hepatocyte [11]
  Activity: 10.05%
Hepatocyte [12]
  Activity: 11.36%
Hepatocyte [13]
  Activity: 83.06%
Hepatocyte [14]
  Activity: 12.59%
Hepatocyte [15]
  Activity: 84.53%
Hepatocyte [16]
  Activity: 0.64%
Mus musculus [17]
  Activity: Active
Hepatocyte [18]
  Activity: 11.38%
Mus musculus [19]
  Activity: Active
Mus musculus [20]
  Activity: Active
Hepatocyte [21]
  inhibition: Active
Hepatocyte [22]
  Activity: 1.49%
Hepatocyte [23]
  Activity: 6.54%
Hepatocyte [24]
  Activity: 2.44%
Hepatocyte [25]
  Activity: 0.95%
Mus musculus [26]
  Activity: Active
Mus musculus [27]
  Activity: Active
Hepatocyte [28]
  Activity: 1.12%
Hepatocyte [29]
  Activity: 5.25%
Hepatocyte [30]
  Activity: 17.41%
Hepatocyte [31]
  Activity: 75.96%
Hepatocyte [32]
  inhibition: Active
Mus musculus [33]
  Activity: Active
Mus musculus [34]
  Activity: Active
Hepatocyte [35]
  Activity: 70.1%
Hepatocyte [36]
  Activity: 7.99%
Mus musculus [37]
  inhibition: Active
Hepatocyte [38]
  Activity: 16.37%
Hepatocyte [39]
  Activity: Active
HepG2
  Activity: Active
Mus musculus [40]
  Activity: Active
